Test results taken from PubChem BioAssay AID1919007 (Molecular Pharmacology Branch, DTP, NCI, 2023).

System: A498 complex spheroids with HUVEC/MSC, growth
Experiment: Anticancer human tumor A498 cell line growth inhibition [AhR];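 also: seven day exposure starting three days after spheroid seeding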;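 as to viability, T/C: luminescence signal used as a surrogate for viable cells; luminescence viability scaled so 100% equals DMSO vehicle wells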
Settings: for IC50: curve of first compound; for viability, T/C: stronger effect = lower value; active = viability on the fitted dose curve at most 10% of control; inactive = the rest
Summary of the method: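 Complex tumor spheroids co-cultured with HUVEC and human MSC stroma; AhR antagonists tested in combination with standard-of-care and investigational agents. Top concentration at or near clinical Cmax (else 10 microM), half-log dilutions; growth expressed as percent test/control.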

[1] = second compound 0.1 µM, first compound 0.0316 µM
[2] = second compound 0.1 µM, first compound 0.1 µM
[3] = second compound 0.1 µM, first compound 0.316 µM
[4] = second compound 0.1 µM, first compound 1 µM
[5] = second compound 0.1 µM, first compound 3.16 µM
[6] = second compound 0.1 µM, first compound 10 µM
[7] = second compound 0.316 µM, first compound 0.0316 µM
[8] = second compound 0.316 µM, first compound 0.1 µM
[9] = second compound 0.316 µM, first compound 0.316 µM
[10] = second compound 0.316 µM, first compound 1 µM
[11] = second compound 0.316 µM, first compound 3.16 µM
[12] = second compound 0.316 µM, first compound 10 µM
[13] = second compound 1 µM, first compound 0.0316 µM
[14] = second compound 1 µM, first compound 0.1 µM
[15] = second compound 1 µM, first compound 0.316 µM
[16] = second compound 1 µM, first compound 1 µM
[17] = second compound 1 µM, first compound 3.16 µM
[18] = second compound 1 µM, first compound 10 µM
[19] = second compound 3.16 µM, first compound 0.0316 µM
[20] = second compound 3.16 µM, first compound 0.1 µM
[21] = second compound 3.16 µM, first compound 0.316 µM
[22] = second compound 3.16 µM, first compound 1 µM
[23] = second compound 3.16 µM, first compound 3.16 µM
[24] = second compound 3.16 µM, first compound 10 µM
[25] = second compound 10 µM, first compound 0.0316 µM
[26] = second compound 10 µM, first compound 0.1 µM
[27] = second compound 10 µM, first compound 0.316 µM
[28] = second compound 10 µM, first compound 1 µM
[29] = second compound 10 µM, first compound 3.16 µM
[30] = second compound 10 µM, first compound 10 µM

COc1cc(C2c3cc4c(cc3C(OC3OC5COC(C)OC5C(O)C3O)C3COC(=O)C23)OCO4)cc(OC)c1O (stereo not given) + Cc1cncc(-c2nc(NCCc3c[nH]c4ccccc34)c3ncn(C(C)C)c3n2)c1
inactive: viability, T/C [1] 79.4% | viability, T/C [2] 73% | viability, T/C [3] 73.3% | viability, T/C [4] 68.1% | viability, T/C [5] 62.4% | viability, T/C [6] 52.2% | viability, T/C [7] 83.7% | viability, T/C [8] 76.6% | viability, T/C [9] 79.9% | viability, T/C [10] 69% | viability, T/C [11] 59.9% | viability, T/C [12] 59% | viability, T/C [13] 79.8% | viability, T/C [14] 74% | viability, T/C [15] 74.4% | viability, T/C [16] 60.5% | viability, T/C [17] 56.3% | viability, T/C [18] 50.1% | viability, T/C [19] 61.4% | viability, T/C [20] 63.6% | viability, T/C [21] 66.9% | viability, T/C [22] 56.8% | viability, T/C [23] 47.1% | viability, T/C [24] 43.2%
> 10000 nM: IC50 (second compound 0.1 µM) | IC50 (second compound 0.316 µM) | IC50 (second compound 1 µM)
3640 nM: IC50 (second compound 3.16 µM)
< 31.6 nM: IC50 (second compound 10 µM)
active: viability, T/C [25] 3.97% | viability, T/C [26] 4.03% | viability, T/C [27] 4.95% | viability, T/C [28] 4.99% | viability, T/C [29] 5.98% | viability, T/C [30] 6.6%

Nc1ccn(C2OC(CO)C(O)C2(F)F)c(=O)n1 (stereo not given) + Cc1ccccc1N=Nc1ccc(NC(=O)c2ccnn2C)c(C)c1
< 31.6 nM: IC50 (second compound 0.1 µM) | IC50 (second compound 0.316 µM) | IC50 (second compound 1 µM) | IC50 (second compound 3.16 µM) | IC50 (second compound 10 µM)
inactive: viability, T/C [1] 33.3% | viability, T/C [2] 36% | viability, T/C [3] 39.9% | viability, T/C [4] 47.9% | viability, T/C [5] 46.9% | viability, T/C [6] 43.5% | viability, T/C [7] 30.9% | viability, T/C [8] 33.1% | viability, T/C [9] 43.9% | viability, T/C [10] 44.8% | viability, T/C [11] 50.5% | viability, T/C [12] 38% | viability, T/C [13] 35.5% | viability, T/C [14] 33.2% | viability, T/C [15] 44% | viability, T/C [16] 50.7% | viability, T/C [17] 42.7% | viability, T/C [18] 38.2% | viability, T/C [19] 37% | viability, T/C [20] 37.5% | viability, T/C [21] 46.5% | viability, T/C [22] 41.8% | viability, T/C [23] 44.6% | viability, T/C [24] 38.8% | viability, T/C [25] 37.4% | viability, T/C [26] 40.8% | viability, T/C [27] 46.6% | viability, T/C [28] 45.7% | viability, T/C [29] 44.7% | viability, T/C [30] 40.9%

O=C(C=Cn1cnc(-c2cc(C(F)(F)F)cc(C(F)(F)F)c2)n1)NNc1cnccn1 + Cc1ccccc1N=Nc1ccc(NC(=O)c2ccnn2C)c(C)c1
55.1 nM: IC50 (second compound 0.316 µM)
61.8 nM: IC50 (second compound 10 µM)
97.1 nM: IC50 (second compound 0.1 µM)
inactive: viability, T/C (second compound 0.1 µM, first compound 0.00949 µM) 88.7% | viability, T/C (second compound 0.1 µM, first compound 0.03 µM) 77.2% | viability, T/C (second compound 0.1 µM, first compound 0.0949 µM) 47.9% | viability, T/C (second compound 0.1 µM, first compound 0.3 µM) 30.3% | viability, T/C (second compound 0.1 µM, first compound 0.949 µM) 19.8% | viability, T/C (second compound 0.1 µM, first compound 3 µM) 13.3% | viability, T/C (second compound 0.316 µM, first compound 0.00949 µM) 74.7% | viability, T/C (second compound 0.316 µM, first compound 0.03 µM) 62.4% | viability, T/C (second compound 0.316 µM, first compound 0.0949 µM) 39.1% | viability, T/C (second compound 0.316 µM, first compound 0.3 µM) 21.9% | viability, T/C (second compound 0.316 µM, first compound 0.949 µM) 19.1% | viability, T/C (second compound 0.316 µM, first compound 3 µM) 16.2% | viability, T/C (second compound 1 µM, first compound 0.00949 µM) 56.9% | viability, T/C (second compound 1 µM, first compound 0.03 µM) 75.9% | viability, T/C (second compound 1 µM, first compound 0.0949 µM) 31.9% | viability, T/C (second compound 1 µM, first compound 0.3 µM) 17.9% | viability, T/C (second compound 1 µM, first compound 0.949 µM) 17.6% | viability, T/C (second compound 1 µM, first compound 3 µM) 20.2% | viability, T/C (second compound 3.16 µM, first compound 0.00949 µM) 70.5% | viability, T/C (second compound 3.16 µM, first compound 0.03 µM) 62% | viability, T/C (second compound 3.16 µM, first compound 0.0949 µM) 24.6% | viability, T/C (second compound 3.16 µM, first compound 0.3 µM) 29.8% | viability, T/C (second compound 3.16 µM, first compound 0.949 µM) 21.4% | viability, T/C (second compound 3.16 µM, first compound 3 µM) 19.4% | viability, T/C (second compound 10 µM, first compound 0.00949 µM) 73.8% | viability, T/C (second compound 10 µM, first compound 0.03 µM) 68.4% | viability, T/C (second compound 10 µM, first compound 0.0949 µM) 37.8% | viability, T/C (second compound 10 µM, first compound 0.3 µM) 29.6% | viability, T/C (second compound 10 µM, first compound 0.949 µM) 20.3% | viability, T/C (second compound 10 µM, first compound 3 µM) 18.8%
43.5 nM: IC50 (second compound 3.16 µM)
51.9 nM: IC50 (second compound 1 µM)
